Measurements as given in patent EP0595557A1, “New substituted azetidinones as anti-inflammatory and antidegenerative agents” (MERCK & CO. INC., priority 1992, dated 1994).

Biological target: T1, Human Polymorphonuclear Leukocyte Elastase (Homo sapiens, UniProt P08246)
T1 construct: Crude extract of human polymorphonuclear leukocytes (PMN) containing elastase activity; from tissue; host or cells: human polymorphonuclear leukocytes (crude extract)
T1 sequence (P08246 30-267): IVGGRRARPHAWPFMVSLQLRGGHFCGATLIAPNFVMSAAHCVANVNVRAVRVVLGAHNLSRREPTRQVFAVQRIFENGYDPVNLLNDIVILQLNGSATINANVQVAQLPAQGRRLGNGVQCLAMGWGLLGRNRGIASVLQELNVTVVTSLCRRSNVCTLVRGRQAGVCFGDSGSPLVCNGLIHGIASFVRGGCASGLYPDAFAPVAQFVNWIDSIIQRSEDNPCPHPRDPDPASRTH
Assay: Enzyme assay for inhibition of human polymorphonuclear leukocyte elastase via hydrolysis of Boc-AAPAN or Boc-AAPVN
Assay type: biochemical
Conditions: expressed to the nearest thousand; for kinact/KI: pH 7.5, second order rate constant for inactivation of the enzyme, read-out: Kobs/[I]
Description: Enzyme Assays for the Inhibition of Human Polymorphonuclear Leukocyte Elastase Via Hydrolysis of N-t-Boc-alanyl-alanyl-prolylalanine-p-nitroanilide (Boc-AAPAN) or N-t-Boc-alanyl-prolylvaline-p-nitro-anilide (Boc-AAPVN) Reagent:
0.05M TES (N-tris[hydroxymethyl]methyl-2-mino-ethanesulfonic acid) Buffer, pH 7.5.
0.2 mM Boc-AAPAN or Boc-AAPVN.
To prepare substrate, the solid was first dissolved in 10.0 ml DMSO. Buffer at pH 7.5 was then added to a final volume of 100 ml.
Crude extract of human polymorphonuclear leukocytes (PMN) containing elastase activity.
Inhibitors (azetidinones) to be tested dissolved in DMSO just before use.
To 1.0 ml of 0.2 mM Boc-AAPAN in a cuvette, 0.01-0.1 ml of DMSO with or without inhibitor was added. After mixing, a measurement was taken at 410 mµ to detect any spontaneous hydrolysis due to presence of test compound. 0.05 Milliliters of PMN extract was then added and the ΔOD/min at 410 mµ was measured and recorded. Beckman model 35 spectrophotometer was used.
Results were expressed to the nearest thousand ^kobs/I which is the second order rate constant in per mole per second for inactivation of the enzyme.
The elastase activity in the crude PMN extract may vary from one preparation to another. A control of each new batch is run, and the volume added in the assay procedure is adjusted according to activity.

Row | kinact/KI [M⁻¹ s⁻¹] | SMILES | Kobs/[I] (second order rate constant for inactivation of the enzyme, pH 7.5)
1 | 1.14e+06 | CCC[C@@H](NC(=O)N1C(=O)C(CC)(CC)[C@@H]1Oc1ccc(CC(=O)N(CCC)CCC)cc1)c1ccc(C)cc1 [Compound 59] | 
2 | 1.08e+06 | CCC[C@@H](NC(=O)N1C(=O)C(CC)(CC)[C@@H]1Oc1ccc(CC(=O)N(CC)CC)cc1)c1ccc(C)cc1 [Compound 60] | 
3 | 733000 | CCC[C@@H](NC(=O)N1C(=O)C(CC)(CC)[C@@H]1Oc1ccc(CC(=O)Nc2cccc(Cl)c2)cc1)c1ccc(C)cc1 [Compound 61] | 
4 | 1.62e+06 | CCC[C@@H](NC(=O)N1C(=O)C(CC)(CC)[C@@H]1Oc1ccc(CC(=O)Nc2cccc(OC)c2)cc1)c1ccc(C)cc1 [Compound 62] | 
5 | 917000 | CCC[C@@H](NC(=O)N1C(=O)C(CC)(CC)[C@@H]1Oc1ccc(CC(=O)N(C)CCCC(=O)O)cc1)c1ccc(C)cc1 [Compound 64] | 
6 | 1.34e+06 | CCC[C@@H](NC(=O)N1C(=O)C(CC)(CC)[C@@H]1Oc1ccc(CC(=O)N(C)CCCC(=O)NS(=O)(=O)c2ccccc2)cc1)c1ccc(C)cc1 [Compound 65] | 
7 | 1.36e+06 | CCC[C@@H](NC(=O)N1C(=O)C(CC)(CC)[C@@H]1Oc1ccc(CC(=O)N(C)CCCN(C)Cc2ccccc2)cc1)c1ccc(C)cc1 [Compound 66] | 
8 | 942000 | CCC[C@@H](NC(=O)N1C(=O)C(CC)(CC)[C@@H]1Oc1ccc(CC(=O)N(C)C)cc1)c1ccc(C)cc1 [Compound 67] | 
9 | 1.9e+06 | CCC[C@@H](NC(=O)N1C(=O)C(CC)(CC)[C@@H]1Oc1ccc(CC(=O)N(C)Cc2ccccc2)cc1)c1ccc(C)cc1 [Compound 68] | 
10 | 2.79e+06 | CCC[C@@H](NC(=O)N1C(=O)C(CC)(CC)[C@@H]1Oc1ccc(CC(=O)N(C)CCN(C)Cc2ccccc2)cc1)c1ccc(C)cc1 [Compound 69] | 
11 | 2.37e+06 | CCC[C@@H](NC(=O)N1C(=O)C(CC)(CC)[C@@H]1Oc1ccc(CC(=O)NOCc2ccccc2)cc1)c1ccc(C)cc1 [Compound 70] | 
12 | 1.51e+06 | CCC[C@@H](NC(=O)N1C(=O)C(CC)(CC)[C@@H]1Oc1ccc(CC(=O)N(C)c2ccc(C(=O)O)cc2)cc1)c1ccc(C)cc1 [Compound 71] | 
13 | 3.28e+06 | CCC[C@@H](NC(=O)N1C(=O)C(CC)(CC)[C@@H]1Oc1ccc(CC(=O)N(C)c2ccc(C(=O)NS(=O)(=O)c3ccccc3)cc2)cc1)c1ccc(C)cc1 [Compound 72] | 
14 | 968000 | CCCC(NC(=O)N1C(=O)C(CC)(CC)C1Oc1ccc(C(=O)NCCN(C)C)cc1)c1ccc(C)cc1 (stereo not drawn) [Compound 73, 2-[4-[[[2-(dimethylamino)ethyl]amino]carbonyl]phenoxy]-3,3-diethyl-N-[1-(4-methylphenyl)butyl]-4-oxo-1-azetidinecarboxamide] | 
15 | 1.43e+06 | CCC[C@@H](NC(=O)N1C(=O)C(CC)(CC)[C@@H]1Oc1ccc(C(=O)NCC(=O)O)cc1)c1ccc(C)cc1 [Compound 74] | 
16 | 1.92e+06 | CCC[C@@H](NC(=O)N1C(=O)C(CC)(CC)[C@@H]1Oc1ccc(C(=O)N(C)CCN(C)C)cc1)c1ccc(C)cc1 [Compound 75, [S-(R*,S*)]-2-[4-[[[2-(dimethylamino)ethyl]methylamino]carbonyl]phenoxy]-3,3-diethyl-N-[1-(4-methylphenyl]butyl]-4-oxo-1-azetidinecarboxamide] | 
17 | 1.44e+06 | CCC[C@@H](NC(=O)N1C(=O)C(CC)(CC)[C@@H]1Oc1ccc(C(=O)N(CC)CCN(C)C)cc1)c1ccc(C)cc1 [Compound 76] | 
18 | 1.19e+06 | CCC[C@@H](NC(=O)N1C(=O)C(CC)(CC)[C@@H]1Oc1ccc(C(=O)NCCN(CC)CC)cc1)c1ccc(C)cc1 [Compound 77] | 
19 | 1.84e+06 | CCC[C@@H](NC(=O)N1C(=O)C(CC)(CC)[C@@H]1Oc1ccc(C(=O)NCCN2CCOCC2)cc1)c1ccc(C)cc1 [Compound 78] | 
20 | 2.12e+06 | CCC[C@@H](NC(=O)N1C(=O)C(CC)(CC)[C@@H]1Oc1ccc(C(=O)N(C)CCN2CCOCC2)cc1)c1ccc(C)cc1 [Compound 79] | 
21 | 2.08e+06 | CCC[C@@H](NC(=O)N1C(=O)C(CC)(CC)[C@@H]1Oc1ccc(C(=O)N(C)CCN(CCOC)CCOC)cc1)c1ccc(C)cc1 [Compound 80] | 
22 | 2.19e+06 | CCC[C@@H](NC(=O)N1C(=O)C(CC)(CC)[C@@H]1Oc1ccc(C(=O)N(C)CCN(CC)CC)cc1)c1ccc(C)cc1 [Compound 81] | 
23 | 2.5e+06 | CCC[C@@H](NC(=O)N1C(=O)C(CC)(CC)[C@@H]1Oc1ccc(C(=O)N(CCN(C)C)c2ccccc2)cc1)c1ccc(C)cc1 [Compound 82] | 

Row | kinact/KI [M⁻¹ s⁻¹] | SMILES | Kobs/[I] (second order rate constant for inactivation of the enzyme, pH 7.5)
24 | 1.8e+06 | CCC[C@@H](NC(=O)N1C(=O)C(CC)(CC)[C@@H]1Oc1ccc(C(=O)N(C)CCCN(C)C)cc1)c1ccc(C)cc1 [Compound 83] | 
25 | 2.1e+06 | CCC[C@@H](NC(=O)N1C(=O)C(CC)(CC)[C@@H]1Oc1ccc(C(=O)NCCN(C(C)C)C(C)C)cc1)c1ccc(C)cc1 [Compound 84] | 
26 | 1.59e+06 | CCC[C@@H](NC(=O)N1C(=O)C(CC)(CC)[C@@H]1Oc1ccc(C(=O)N(C)CC[N+](C)(C)[O-])cc1)c1ccc(C)cc1 [Compound 85] | 
27 | 2.45e+06 | CCC[C@@H](NC(=O)N1C(=O)C(CC)(CC)[C@@H]1Oc1ccc(C(=O)N(C)CCN(C(C)C)C(C)C)cc1)c1ccc(C)cc1 [Compound 86] | 
28 | 775000 | CCC[C@@H](NC(=O)N1C(=O)C(CC)(CC)[C@@H]1Oc1ccc(C(=O)NS(=O)(=O)CCN2CCOCC2)cc1)c1ccc(C)cc1 [Compound 87] | 
29 | 788000 | CCC[C@@H](NC(=O)N1C(=O)C(CC)(CC)[C@@H]1Oc1ccc(C(=O)NS(=O)(=O)CCN(C)C)cc1)c1ccc(C)cc1 [Compound 88] | 
30 | 2.09e+06 | CCC[C@@H](NC(=O)N1C(=O)C(CC)(CC)[C@@H]1Oc1ccc(C(=O)NCCc2cnc[nH]2)cc1)c1ccc(C)cc1 [Compound 89] | 
31 | 941000 | CCC[C@@H](NC(=O)N1C(=O)C(CC)(CC)[C@@H]1Oc1ccc(C(=O)NCCN2CCCCC2)cc1)c1ccc(C)cc1 [Compound 90] | 
32 | 892000 | CCC[C@@H](NC(=O)N1C(=O)C(CC)(CC)[C@@H]1Oc1ccc(C(=O)N(C)CCN2CCCCC2)cc1)c1ccc(C)cc1 [Compound 91] | 
33 | 1.45e+06 | CCC[C@@H](NC(=O)N1C(=O)C(CC)(CC)[C@@H]1Oc1ccc(C(=O)N(C)CCNC)cc1)c1ccc(C)cc1 [Compound 92] | 
34 | 1.24e+06 | CCC[C@@H](NC(=O)N1C(=O)C(CC)(CC)[C@@H]1Oc1ccc(C(=O)NCCN2CCCC2)cc1)c1ccc(C)cc1 [Compound 94] | 
35 | 1e+06 | CCC[C@@H](NC(=O)N1C(=O)C(CC)(CC)[C@@H]1Oc1ccc(C(=O)N(C)CCN2CCCC2)cc1)c1ccc(C)cc1 [Compound 95] | 
36 | 1.4e+06 | CCC[C@@H](NC(=O)N1C(=O)C(CC)(CC)[C@@H]1Oc1ccc(C(=O)NCCn2cncn2)cc1)c1ccc(C)cc1 [Compound 96] | 
37 | 1.07e+06 | CCC[C@@H](NC(=O)N1C(=O)C(CC)(CC)[C@@H]1Oc1ccc(C(=O)NCCn2ccnc2)cc1)c1ccc(C)cc1 [Compound 97] | 
38 | 2.58e+06 | CCC[C@@H](NC(=O)N1C(=O)C(CC)(CC)[C@@H]1Oc1ccc(C(=O)NCCN2CCC3(CCCCC3)CC2)cc1)c1ccc(C)cc1 [Compound 99] | 
39 | 2.01e+06 | CCC[C@@H](NC(=O)N1C(=O)C(CC)(CC)[C@@H]1Oc1ccc(C(=O)NCCn2ncnn2)cc1)c1ccc(C)cc1 [Compound 100] | 
40 | 2.05e+06 | CCC[C@@H](NC(=O)N1C(=O)C(CC)(CC)[C@@H]1Oc1ccc(C(=O)NCCn2cnnn2)cc1)c1ccc(C)cc1 [Compound 101] | 
41 | 2.75e+06 | CCCC(NC(=O)N1C(=O)C(CC)(CC)C1Oc1ccc(C(=O)NCC(=O)N2CCCC2C(=O)NCc2ccccc2)cc1)c1ccc(C)cc1 (stereo not drawn) [Compound 102] | 
42 | 2.39e+06 | CCC[C@@H](NC(=O)N1C(=O)C(CC)(CC)[C@@H]1Oc1ccc(C(=O)N(C)CCc2c[nH]cn2)cc1)c1ccc(C)cc1 [Compound 104] | 
43 | 2.4e+06 | CCC[C@@H](NC(=O)N1C(=O)C(CC)(CC)[C@@H]1Oc1ccc(C(=O)N(C)CCN(C)C(C)=O)cc1)c1ccc(C)cc1 [Compound 105] | 
44 | 2.49e+06 | CCC[C@@H](NC(=O)N1C(=O)C(CC)(CC)[C@@H]1Oc1ccc(C(=O)N(C)CCN(C)C(=O)NC)cc1)c1ccc(C)cc1 [Compound 106] | 
45 | 2.53e+06 | CCC[C@@H](NC(=O)N1C(=O)C(CC)(CC)[C@@H]1Oc1ccc(C(=O)N(C)CCN(C)S(C)(=O)=O)cc1)c1ccc(C)cc1 [Compound 107] | 
46 |  | CCC[C@@H](NC(=O)N1C(=O)C(CC)(CC)[C@@H]1Oc1ccc(C(=O)N(C)CCN2CC3CCC(CC3)C2)cc1)c1ccc(C)cc1 [Compound 108] | 2,953,000 per mole per second

Row | SMILES | kinact/KI [M⁻¹ s⁻¹] | Kobs/[I] (second order rate constant for inactivation of the enzyme, pH 7.5)
47 | CCC[C@@H](NC(=O)N1C(=O)C(CC)(CC)[C@@H]1Oc1ccc(C(=O)NCCN2CC3CCC(CC3)C2)cc1)c1ccc(C)cc1 [Compound 98] | 3.04e+06 | 
48 | CCC[C@@H](NC(=O)N1C(=O)C(CC)(CC)[C@@H]1Oc1ccc(C(=O)N(C)CCN2CC3CCC(CC3)C2)cc1)c1ccc(C)cc1 [Compound 103] | 3e+06 | 
